The values below come from article PMC10932281, “A Combination of β-Aescin and Newly Synthesized Alkylamidobetaines as Modern Components Eradicating the Biofilms of Multidrug-Resistant Clinical Strains of Candida glabrata” (International Journal of Molecular Sciences, 2024).

In brackets after ≈: the same amount, converted by molar mass. Read-outs that look alike come from different tables or passages of the source.

Data set [1] concerns C. glabrata ATCC 90030 biofilm. The experiment in a line: Biofilm eradication on polystyrene, fluorescence microscopy (Syto9/PI). In kind it is cell-based, Candida glabrata. The procedure: (§1) C. glabrata biofilm eradication on polystyrene surfaces was assessed according to the following procedure: 1 mL of C. glabrata culture, 10^6 CFU/mL in RMPI 1640 MOPS-buffered medium, was pipetted into the wells of a 48-well adherent plate. Cultures were incubated at 37 °C for 72 h with shaking (400 RPM). […] Non-treated cells were used as the control. This experiment was carried out in triplicate. The analysis of the biofilm eradication of C. glabrata strains on polystyrene surfaces was performed using fluorescence microscopy (FM). For further information, see Section 4.12. below.
(§2) The 72 h biofilm of C. glabrata strains on polystyrene surfaces was stained on 48-well adherent plates with 1 µL of propidium iodide (Ex λ = 543 nm/Em λ = 617 nm) and 1 µL of SYTO9 (Ex λ = 488 nm/Em λ = 503 nm) for 30 min using a LIVE/DEAD BacLight Bacterial Viability Kit (Thermo Fisher Scientific, Waltham, MA USA). Imaging was performed using a fluorescence microscope (FM) BX51 (Olympus, Tokyo, Japan) equipped with an Orca Flash 40 camera (Hamamatsu, Hamamatsu City, Japan) and 10× objective Plan APO. Scale bar = 100 µm. Detailed computer qualitative and quantitative analyses of the obtained pictures were performed by estimating the coverage area on the polystyrene plate (the percentage of the area occupied by the fungal biofilm). The cell viability analysis was performed by calculating the fluorescence intensity of the dyes (Syto9/PI) used. The acquired images were processed and analyzed using Fiji/ImageJ software ver. 1.53c (NIH, Bethesda, MD, USA). First, maximum intensity projections (MIPs) were obtained from stacks of images. The areas of the binary images were transferred into the original live and dead channel MIP images. The mean fluorescence intensities of all detected objects per field of view were calculated using ImageJ’s Analyze Threshold function (Software: ImageJ version 1.53 from Softonic).

The subject of data set [2] is C. glabrata 2853 biofilm. The data set is described as above. Format: cell-based, Candida glabrata. The procedure: as §1, §2
The subject of data set [3] is C. glabrata 2586 biofilm. Described as above. In kind it is cell-based, Candida glabrata. The procedure:
as §1, §2

Data set [4] concerns C. glabrata ATCC 90030. The experiment in a line: MIC90/MFC, EUCAST broth microdilution. Format: cell-based, Candida glabrata. Background: Broth dilution looks for growth in wells or tubes with falling amounts of substance.
The subject of data set [5] is sheep red blood cells. The experiment in a line: Hemolysis assay. In kind it is cell-based. The procedure:
This test was performed according to a modified method. The hemolytic activity of the compounds was determined using sheep red blood cells. The blood was centrifuged (2000 RPM; 15 min) and rinsed 3 times with PBS. A total of 25 µL of erythrocytes for each sample were added to 500 µL of PBS to obtain the final concentration for the newly synthesized AABs: 0.25 µM, 0.5 µM; 1 µM, 2 µM; and 3 µM, and for β-AE, obtaining the following final concentrations: 100 µg/mL; 250 µg/mL; 500 µg/mL; 750 µg/mL; and 1000 µg/mL. The negative control (C−) consisted of erythrocytes suspended in PBS, and the positive control consisted of erythrocytes suspended in a 1% SDS solution. The samples were incubated for 2 h at 37 °C with shaking at 140 RPM. After this time, the blood cells were centrifuged (10 min; 2500 RPM), and 300 μL of the supernatant was transferred into a 96-well titration plate. Absorbance measurements were performed at a wavelength of λ = 540 nm. Measurements were performed in 10 repetitions. Finally, the values that were obtained from the samples treated with the test compound (OD test) were normalized relative to the positive (100% lysis; OD (C+)) and negative (untreated; OD (C−)) control samples to give the hemolysis ratio (HR) by using the following equation: HR (%) = OD test−OD (C−)/OD (C+) − OD (C−) × 100%.

Data set [6] relates to C. glabrata 2586 clinical strain. The experiment in a line: MIC90/MFC, EUCAST broth microdilution. Format: cell-based, Candida glabrata.
Data set [7] relates to C. glabrata 2853 clinical strain. The experiment in a line: MIC90/MFC, EUCAST broth microdilution. Format: cell-based, Candida glabrata.
Data set [8] deals with Balb/3T3 mouse embryonic fibroblasts. Kind of data set: Cell proliferation assay (MTT test). The note with it: 24 h. Format: cell-based. The arrangement: Survival of the tested cell line: dose or concentration left out as unconfirmed. The procedure: Balb/3T3 (ATCC CCL-163) mouse embryonic fibroblasts were cultured in DMEM medium supplemented with 10% fetal bovine serum, 1 mM L-glutamine, and a 1% penicillin/streptomycin solution and were used for our cytotoxicity studies. The cells were cultured at 37 °C and 5% CO2 until the cell density of 10^6 mL^−1 was obtained. Such cells were then seeded in 24-well tissue microplates (2 × 10^4 cells per well) and allowed to adhere overnight under the abovementioned conditions. Cytotoxicity tests were carried out on the cells prepared in this way.
The newly synthesized AABs (C9, C11, C13, and C15) were selected based on previous studies. They were analyzed at the concentrations of 0.25, 0.5, 1, 2, and 3 µM. […] The BALB-3T3 cells were treated with the prepared mixtures, dissolved in a complete cell culture medium, and then incubated for 24 h under the abovementioned conditions. Three independent replicates were performed for each combination of compounds.
The cytotoxic effect of the tested compounds in combination with β-AE was evaluated by measuring mitochondrial dehydrogenase activity using the MTT assay. After a 24 h incubation period, the medium supplemented with the 1mM MTT solution was added to each well. The cultures were continued for another 4 h under the conditions enriched with 5% CO2. After this time, the supernatant was collected, and MTT formazan was extracted from the cells using DMSO. The reaction was then stopped with Sörensen buffer (0.1 mol/L glycine; 0.1 mol/L NaCl; and pH 10.5). The percentage of cytotoxicity was calculated by comparing the absorbance values (λ = 560 nm) of the test sample to the control sample, which was untreated fibroblast cells. In the test performed, the negative control (C−) (sample not treated; PBS added) and positive control (C+) were fibroblast cells treated with 1% SDS [60].

The test system of data set [9] is C. glabrata cells. The arrangement: method as in PMID 37508306. The note with it: ref [12], cited from earlier work.
The mark [10] stands for this setting: Nakaseomyces glabratus, AAB alone, read-out: MIC converted to.

The viability is the share of living cells, or the viability signal relative to a control. A word on the MIC: it is the smallest concentration in the dilution series that meets the test's criterion for growth inhibition. By MFC is commonly meant the smallest concentration meeting the test's criterion for killing the fungus.

In the case of `CCCCCCCCCC(=O)N(C)CCC[N+](C)(C)CC(=O)[O-]` [C9], the Biofilm surface area in data set [1] (C9 combined with β-AE, optimal concentration configuration, control 88.77%) stood at 1.37%; in data set [2] (C9 combined with β-AE, optimal concentration configuration, control 84.52%), 1.12%; in [3] (C9 combined with β-AE, optimal concentration configuration, control 73.17%), 2.1%. In addition, the “Percentage of live cells” value in [1] (C9 in combination with β-AE, 72 h, control 98.35%) was 1.64%; in [2] (C9 in combination with β-AE, 72 h, control 97.46%), 3.33%; in data set [3] (C9 in combination with β-AE, 72 h, control 97.99%), 1.93%. For the same compound, the viability at 1 µM in data set [1] (Nakaseomyces glabratus, ATCC90030, AAB alone 1 μM, 72 h, read-out: Biofilm Viability [%] 90030 Live) stood at 83.6%; in data set [2] (Nakaseomyces glabratus, 2853BIOFILM, AAB alone 1 μM, 72 h, read-out: Biofilm Viability [%] 2853 Live), 82.2%; in data set [3] (Nakaseomyces glabratus, 2586BIOFILM, AAB alone 1 μM, 72 h, read-out: Biofilm Viability [%] 2586 Live), 3.28%. Besides, the viability at 2 µM in data set [1] (Nakaseomyces glabratus, ATCC90030, AAB alone 2 μM, 72 h, read-out: Biofilm Viability [%] 90030 Live) turned out to be 23.8%; in [2] (Nakaseomyces glabratus, 2853BIOFILM, AAB alone 2 μM, 72 h, read-out: Biofilm Viability [%] 2853 Live), 76.2%; in data set [3] (Nakaseomyces glabratus, 2586BIOFILM, AAB alone 2 μM, 72 h, read-out: Biofilm Viability [%] 2586 Live), 3.01%. Also, the viability at 3 µM in data set [1] (Nakaseomyces glabratus, ATCC90030, AAB alone 3 μM, 72 h, read-out: Biofilm Viability [%] 90030 Live) worked out at 21.4%; in data set [2] (Nakaseomyces glabratus, 2853BIOFILM, AAB alone 3 μM, 72 h, read-out: Biofilm Viability [%] 2853 Live), 66.4%; in data set [3] (Nakaseomyces glabratus, 2586BIOFILM, AAB alone 3 μM, 72 h, read-out: Biofilm Viability [%] 2586 Live), 2.52%. Besides, the MIC90 in data set [4] (ATCC 90030, AAB alone) is recorded as 3 µM/mL; in data set [6] (AAB alone), 3 µM/mL; in data set [7] (AAB alone), 1 µM/mL. Moreover, the minimum inhibitory concentration (MIC) in [4] (Nakaseomyces glabratus, ATCC90030, reference strain, AAB alone, read-out: MIC converted to) was determined as 985 µg/mL (≈ 3000 µM); in data set [6] (setting [10]), 985 µg/mL (≈ 3000 µM); in data set [7] (setting [10]) it was 328 µg/mL (≈ 1000 µM). The Hemolysis entry in data set [5] (all concentrations tested (0.25 up to 3 µM)) is “not hemolytic at all concentrations tested”. Moreover, the Surviving cells in [8] (0.25 to 3 µM/mL) is 100%.
Regarding β-aescin, the “Biofilm Viability [%] 90030 Live” value in data set [1] (1 MIC β-AE, 72 h) was determined as 76.70%. Besides, the “Area of the biofilm” value in [1] (β-AE 1 × MIC, 72 h, control 88.77%) is given as 68.98%; in data set [2] (β-AE 1 × MIC, 72 h, control 84.52%, listed as β-AE), 45.63%; in data set [3] (β-AE 1 × MIC, 72 h, control 73.17%, listed as β-AE), 59.3%. The “Biofilm Viability [%] 2853 Live” value in [2] (1 MIC β-AE, 72 h) is given as 92.13%. In addition, the “Biofilm Viability [%] 2586 Live” value in data set [3] (1 MIC β-AE, 72 h) is recorded as 9.33%. Also, the MFC in data set [4] (ATCC 90030) was 256 µg/mL; in data set [6], 256 µg/mL; in [7], 128 µg/mL. The results for the MIC90 in data set [4] (ATCC 90030), in [6] and in data set [7] were 128 µg/mL, 256 µg/mL and 128 µg/mL, respectively. For the same compound, the “Increase versus control (FACS, membrane integrity)” value in [9] (1 × MIC) is on record as “about 7.4%”; in data set [9] (2 × MIC), approximately 22%. For the same compound, the Hemolysis result in data set [5] (100 up to 1000 µg/mL, 2 h, 37 °C) is given as “hemolytic at all concentrations tested”. The “Survival of the tested cell line” value in [8] (64–512) was 83–85%.
